TGI data for 13 compounds are collected here from PubChem BioAssay (NCI).

Some test systems named below: UO-31 renal; NCI-H23 lung; CCRF-CEM leukemia; MDA-N; T-47D breast; NCI-H226 lung; M14 melanoma; PC-3 prostate; SW-620 colon; 786-0 renal; UACC-257 melanoma.
What all share (test): NCI tumour cell line growth inhibition, 48 h

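Briefly, cells in 96-well plates were exposed to five compound concentrations for 48 h, and endpoints were estimated by linear interpolation. TGI denotes the concentration required for complete inhibition of growth.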 A value given as a limit tells only on which side of the number the result lay.

For `O=C1CC(c2ccccc2)C2(C(=O)NC(=S)NC2=O)C(c2ccccc2)C1` (stereo not drawn), the TGI with UO-31 renal, in the experiment on NCI-H23 lung, in the experiment on CCRF-CEM leukemia, with MDA-N, in the experiment with T-47D breast and in the experiment with NCI-H226 lung was greater than 75 µM throughout. Further, the TGI in the experiment on M14 melanoma, with PC-3 prostate, with SW-620 colon, in the experiment on 786-0 renal and with UACC-257 melanoma was greater than 75 µM throughout.

Regarding `COc1ccc(C2OC(=O)c3ccc4ccccc4c32)c(C)c1` (stereo not drawn), the TGI is greater than 83.8 µM in the experiment with UO-31 renal; 41.8 µM in the experiment with NCI-H23 lung; greater than 100 µM in the experiment on CCRF-CEM leukemia; 4.28 µM in the experiment on MDA-N; greater than 86 µM with T-47D breast; 56.9 µM with NCI-H226 lung. Further, the TGI with M14 melanoma was greater than 38 µM; in the experiment on PC-3 prostate it was greater than 100 µM; in the experiment on SW-620 colon, greater than 72.9 µM; in the experiment with 786-0 renal it was 54 µM; in the experiment on UACC-257 melanoma, greater than 100 µM.

Regarding `C=C(C(=O)O)[C@@H]1C[C@@H]2O[C@H]1[C@@H](O)[C@@H](C)CCCC(C)=CCC[C@@]2(C)O`, the TGI in the experiment with UO-31 renal, in the experiment on NCI-H23 lung, in the experiment on CCRF-CEM leukemia, with MDA-N, in the experiment with T-47D breast and with NCI-H226 lung was greater than 100 µM each time. Also, the TGI in the experiment with M14 melanoma, in the experiment on PC-3 prostate, in the experiment with SW-620 colon, in the experiment on 786-0 renal and with UACC-257 melanoma was greater than 100 µM each time.

Consider `O=C(O)Cc1ccc(Nc2nc3cc(C(F)(F)F)ccc3nc2C(=O)O)cc1`, for which the TGI in the experiment on UO-31 renal, in the experiment on NCI-H23 lung, in the experiment with MDA-N, in the experiment on T-47D breast, in the experiment with NCI-H226 lung and in the experiment on M14 melanoma was greater than 100 µM each time. Further, the TGI with PC-3 prostate, in the experiment on SW-620 colon, with 786-0 renal and with UACC-257 melanoma was greater than 100 µM each time.

Consider `Cc1ccc(/C=N/n2c(-c3ccc(C)cc3)n[nH]c2=O)cc1`, for which the TGI in the experiment on UO-31 renal, with NCI-H23 lung, in the experiment on CCRF-CEM leukemia, in the experiment on MDA-N, in the experiment on T-47D breast and in the experiment with NCI-H226 lung was greater than 100 µM throughout. Besides, the TGI in the experiment on M14 melanoma, in the experiment on PC-3 prostate, in the experiment on SW-620 colon, in the experiment on 786-0 renal and in the experiment with UACC-257 melanoma was greater than 100 µM each time.

`c1cc2c(s1)-c1sccc1C21OCCO1`: the TGI is greater than 100 µM in the experiment on UO-31 renal; greater than 100 µM in the experiment with NCI-H23 lung; greater than 100 µM in the experiment on CCRF-CEM leukemia; greater than 100 µM in the experiment on MDA-N; 80.9 µM with T-47D breast; greater than 100 µM with NCI-H226 lung. For the same compound, the TGI in the experiment on M14 melanoma, in the experiment on 786-0 renal and in the experiment on UACC-257 melanoma was greater than 100 µM throughout.

Take `COC(=O)c1ccc(/C=C2\Oc3ccccc3C2=O)cc1`: the TGI with UO-31 renal, with NCI-H23 lung, with CCRF-CEM leukemia, in the experiment on MDA-N, in the experiment on T-47D breast and with NCI-H226 lung was greater than 100 µM in each case. For the same compound, the TGI with M14 melanoma, in the experiment on PC-3 prostate, in the experiment on SW-620 colon, with 786-0 renal and in the experiment on UACC-257 melanoma was greater than 100 µM throughout.

As for `COc1cc2c(cc1OC)C(=O)N(c1ccc(O)cc1)C2=O`, the TGI in the experiment with NCI-H23 lung, with CCRF-CEM leukemia, in the experiment on MDA-N, in the experiment with T-47D breast, in the experiment with NCI-H226 lung and in the experiment on M14 melanoma was greater than 100 µM each time. The TGI in the experiment on PC-3 prostate, in the experiment with SW-620 colon, in the experiment on 786-0 renal and with UACC-257 melanoma was greater than 100 µM each time.

For the compound `CCCC(CCC(N)=O)(CCC(N)=O)[N+](=O)[O-]`, the TGI in the experiment on UO-31 renal, with NCI-H23 lung, in the experiment on CCRF-CEM leukemia, with MDA-N, in the experiment on T-47D breast and with NCI-H226 lung was greater than 100 µM each time. Further, the TGI in the experiment on M14 melanoma, in the experiment on PC-3 prostate, in the experiment with SW-620 colon, in the experiment on 786-0 renal and with UACC-257 melanoma was greater than 100 µM each time.

`Cc1c2c3ccccc3nc-2n(C)c2ccccc12`: the TGI with UO-31 renal was 6.25 µM; in the experiment on NCI-H23 lung, 13.9 µM; in the experiment with CCRF-CEM leukemia it was 5.33 µM; in the experiment on MDA-N, 14.5 µM; in the experiment with T-47D breast it was 41.3 µM; in the experiment on NCI-H226 lung, 8.52 µM. For the same compound, the TGI in the experiment with M14 melanoma came out at 20.5 µM; in the experiment on PC-3 prostate, 7.5 µM; in the experiment with SW-620 colon, 12.9 µM; in the experiment on 786-0 renal, 13 µM; in the experiment on UACC-257 melanoma, 8.05 µM.

Consider `CCOC(=O)C1=C(O)C2C3CC4C2C(O)=C(C(=O)OCC)C2C1C3C42` (stereo not drawn), for which the TGI in the experiment with UO-31 renal, in the experiment on NCI-H23 lung, with CCRF-CEM leukemia, in the experiment with MDA-N, with T-47D breast and with NCI-H226 lung was greater than 100 µM each time. Moreover, the TGI in the experiment on M14 melanoma, with PC-3 prostate, with SW-620 colon, with 786-0 renal and in the experiment with UACC-257 melanoma was greater than 100 µM throughout.

For `NC(N)=NC(N)=Nc1ccc(S(=O)(=O)O)cc1`, the TGI in the experiment on UO-31 renal, in the experiment on NCI-H23 lung, in the experiment with CCRF-CEM leukemia, in the experiment on MDA-N, with T-47D breast and with NCI-H226 lung was greater than 100 µM in each case. The TGI with M14 melanoma, with PC-3 prostate, in the experiment on SW-620 colon, with 786-0 renal and with UACC-257 melanoma was greater than 100 µM each time.

`c1cc2c(cc1NC1=NCCO1)OCO2`: the TGI in the experiment with UO-31 renal was greater than 100 µM; with NCI-H23 lung it was greater than 100 µM; in the experiment on CCRF-CEM leukemia it was greater than 21.1 µM; in the experiment on MDA-N, greater than 100 µM; in the experiment with T-47D breast, greater than 100 µM; with NCI-H226 lung, greater than 100 µM. Also, the TGI with M14 melanoma, with PC-3 prostate, in the experiment with SW-620 colon and in the experiment on 786-0 renal was greater than 100 µM throughout.
